This passage reports IC50 results from patent US7470679B2, “Constrained compounds as CGRP-receptor antagonists” (Bristol-Myers Squibb Company, priority 2006, dated 2008).

Where only a bound is given, the exact number is not on record here.

T1 sequence (Q16602 23-461): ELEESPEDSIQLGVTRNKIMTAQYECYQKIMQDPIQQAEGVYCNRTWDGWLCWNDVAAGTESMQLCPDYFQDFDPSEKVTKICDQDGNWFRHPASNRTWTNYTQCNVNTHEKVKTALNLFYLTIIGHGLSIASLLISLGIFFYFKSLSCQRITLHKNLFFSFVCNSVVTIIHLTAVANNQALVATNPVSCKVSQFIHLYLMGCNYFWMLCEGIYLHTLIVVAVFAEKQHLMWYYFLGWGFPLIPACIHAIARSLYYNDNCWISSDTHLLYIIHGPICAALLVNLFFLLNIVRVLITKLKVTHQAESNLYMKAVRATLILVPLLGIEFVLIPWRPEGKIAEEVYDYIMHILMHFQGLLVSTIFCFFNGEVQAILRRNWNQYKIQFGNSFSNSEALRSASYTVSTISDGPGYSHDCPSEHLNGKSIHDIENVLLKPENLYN
T1 sequence (O60894 27-148): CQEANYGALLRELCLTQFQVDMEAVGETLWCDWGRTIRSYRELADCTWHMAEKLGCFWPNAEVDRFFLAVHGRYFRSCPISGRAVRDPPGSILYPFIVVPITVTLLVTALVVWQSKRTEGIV

For one experiment, the target named is T1, CGRP receptor (Homo sapiens, UniProt O60894+Q16602). Put plainly: Cyclic AMP Functional Antagonism Assay. The class given is cell-based. Details: cells that endogenously express the human CGRP receptor; endogenous in cells; host or cells: SK-N-MC cells. To be noted: Table 2; SK-N-MC cells, 0.3 nM CGRP, 30 min; read-out: cAMP Function IC50. The protocol:
Cyclic AMP Functional Antagonism Assay. Antagonism of the compounds of invention was determined by measuring the formation of cyclic AMP (adenosine 3′5′-cyclic monophosphate) in SK—N-MC cells that endogenously express the human CGRP receptor. CGRP receptor complex is coupled with Gs protein and CGRP binding to this complex leads to the cyclic AMP production via Gs-dependent activation of an adenylate cyclase (Juaneda C et al., TiPS, 2000; 21:432-438; incorporated by reference herein). Consequently, CGRP receptor antagonists inhibit CGRP-induced cyclic AMP formation in SK—N-MC cells (Doods H et al., Br J Pharmacol, 2000; 129(3):420-423); incorporated by reference herein). For cyclic AMP measurements SK—N-MC cells were incubated with 0.3 nM CGRP alone or in the presence of various concentrations of the compounds of invention for 30 min at room temperature. Compounds of invention were pre-incubated with SK—N-MC cells for 15 min before the addition of CGRP to allow receptor occupancy (Edvinsson et al., Eur J Pharmacol, 2001, 415:39-44; incorporated by reference herein). Cyclic AMP was extracted using the lysis reagent and its concentration was determined by radioimmunoassay using RPA559 cAMP SPA Direct Screening Assay Kit (Amersham Pharmacia Biotech). IC50 values were calculated using Excel fit.
With `CC(C)(C)CN1Cc2c(ccc3[nH]ncc23)C[C@@H](CC(=O)N2CCC(n3cc(-c4ccccc4)[nH]c3=O)CC2)C1=O`, the IC50 fell in the range of 10 to 100 nM. With `O=C(NC1Cc2ccc3[nH]ncc3c2CN(CCc2ccncc2)C1=O)N1CCC(N2Cc3ccccc3NC2=O)CC1` (centres unmarked), the concentration for half-maximal inhibition (IC50) lay in the range of 0.1 to 10 nM. With `CC(C)(C)CN1Cc2c(ccc3[nH]ncc23)C[C@@H](CC(=O)N2CCC(N3Cc4ccccc4NC3=O)CC2)C1=O`, the concentration for half-maximal inhibition (IC50) was in the range of 0.1 to 10 nM.

For a further experiment, the target named is T1, CGRP receptor. Put plainly: CGRP Binding Assay ([125I]-CGRP radioligand displacement, SK-N-MC homogenate). To be noted: Table 1, displacement of [125I]-CGRP. On the set-up: endogenous in cells; host or cells: SK-N-MC cells (membrane homogenate). The protocol:
CGRP Binding Assay. Tissue Culture. SK—N-MC cells were grown at 37° C. in 5% CO2 as a monolayer in medium consisting of MEM with Earle's salts and L-glutamine (Gibco) supplemented with 10% fetal bovine serum (Gibco). Cell Pellets. The cells were rinsed twice with phosphate-buffered saline (155 mM NaCl, 3.3 mM Na2HPO4, 1.1 mM KH2PO4, pH 7.4), and incubated for 5-10 min. at 4° C. in hypotonic lysis buffer consisting of 10 mM Tris (pH 7.4) and 5 mM EDTA. The cells were transferred from plates to polypropylene tubes (16×100 mm) and homogenized using a polytron. Homogenates were centrifuged at 32,000×g for 30 min. The pellets were resuspended in cold hypotonic lysis buffer with 0.1% mammalian protease inhibitor cocktail (Sigma) and assayed for protein concentration. The SK—N-MC homogenate was then aliquoted and stored at −80° C. until needed.
Radioligand Binding Assay. The compounds of invention were solubilized and carried through serial dilutions using 100% DMSO. Aliquots from the compound serial dilutions were further diluted 25 fold into assay buffer (50 mM Tris-Cl pH 7.5, 5 mM MgCl2, 0.005% Triton X-100) and transferred (volume 50 μl) into 96 well assay plates. [^125I]-CGRP (Amersham Biosciences) was diluted to 60 pM in assay buffer and a volume of 50 μl was added to each well. SK—N-MC pellets were thawed, diluted in assay buffer with fresh 0.1% mammalian protease inhibitor cocktail (Sigma), and homogenized again. SK—N-MC homogenate (5 μg/well) was added in a volume of 100 μl. The assay plates were then incubated at room temperature for 2 h. Assays were stopped by addition of excess cold wash buffer (20 mM Tris-Cl pH 7.5, 0.1% BSA) immediately followed by filtration over glass fiber filters (Whatman GF/B) previously soaked in 0.5% PEI. Non-specific binding was defined with 1 μM beta-CGRP. Protein bound radioactivity was determined using a gamma or scintillation counter. The IC50 was defined as the concentration of a compound of invention required to displace 50% of radioligand binding.
`O=C(C[C@@H]1Cc2cc(Br)c3[nH]nc(Br)c3c2CN(CC(F)(F)F)C1=O)N1CCC(c2cc3cccc(F)c3[nH]c2=O)CC1` yielded an IC50 of 0.1 to 10 nM. For `O=C1OCc2c(cc(Br)c3[nH]ncc23)C[C@H]1CC(=O)N1CCC(c2cc3ccccc3[nH]c2=O)CC1`, the IC50 was 0.1 to 10 nM.

Molecule `O=C(C[C@@H]1Cc2cc(Br)c3[nH]nc(Br)c3c2CN(CC(F)(F)F)C1=O)N1CCC(c2cc3ccccc3[nH]c2=O)CC1` displayed an IC50 of 0.1 to 10 nM.

The same experiment, now with this note: Table 2, displacement of [125I]-CGRP.
For `CC(C)(C)CN1Cc2c(cc(Cl)c3[nH]ncc23)C[C@@H](CC(=O)Nc2ccc3c(c2)CC2(C3)NC(=O)NC2=O)C1=O` (some centres unmarked), the IC50 is 10 to 100 nM. Consider `O=C(C[C@@H]1Cc2cc(Br)c3[nH]ncc3c2CN(CC2CC2)C1=O)N1CCC(c2cc3ccccc3[nH]c2=O)CC1`, for which the half-maximal inhibitory concentration (IC50) was 0.1 to 10 nM. The molecule `O=C(N[C@@H]1Cc2ccc3[nH]ncc3c2CN(CCN2CCOCC2)C1=O)N1CCC(N2Cc3ccccc3NC2=O)CC1` had an IC50 of 10 to 100 nM.

With `CC(C)(C)CN1Cc2c(ccc3[nH]ncc23)C[C@@H](NC(=O)N2CCC3(CC2)CNC(=O)c2ccccc23)C1=O`, the half-maximal inhibitory concentration (IC50) was > 1000 nM. Consider `CC(C)(C)CN1Cc2c(ccc3[nH]ncc23)C[C@@H](CC(=O)N2CCC(n3cc(-c4ccccc4)[nH]c3=O)CC2)C1=O`, for which the IC50 was 10 to 100 nM. Consider `O=C1Nc2ccccc2CC1C1CCN(C(=O)C[C@@H]2Cc3ccc4[nH]ncc4c3CN(Cc3ccccc3)C2=O)CC1` (some centres unmarked), for which the 50% inhibitory concentration (IC50) lay within 100 to 1000 nM. With `CC(C)(C)CN1Cc2c(cc(Cl)c3[nH]ncc23)C[C@@H](CC(=O)N2CCC(c3cc4ccccc4c[n+]3[O-])CC2)C1=O`, the IC50 lay within 10 to 100 nM.

`O=C(NC1Cc2ccc3[nH]ncc3c2CN(CCc2ccncc2)C1=O)N1CCC(N2Cc3ccccc3NC2=O)CC1` (centres unmarked): the 50% inhibitory concentration (IC50) is 0.1 to 10 nM. Molecule `O=C1NCCC2(CCN(C(=O)N[C@@H]3Cc4ccc5[nH]ncc5c4CN(Cc4ccc(C(F)(F)F)cc4)C3=O)CC2)N1` gave an IC50 of 100 to 1000 nM. Same read-out and setting: with `CC(C)(C)CN1Cc2c(ccc3[nH]ncc23)C[C@@H](CC(=O)N2CCC(N3Cc4ccccc4CC3=O)CC2)C1=O` the figure was 100 to 1000 nM. Same read-out and setting: with `COCCN1Cc2c(cc(Br)c3[nH]ncc23)C[C@@H](CC(=O)N2CCC(c3cc4cccc(F)c4[nH]c3=O)CC2)C1=O` the figure was 10 to 100 nM; with `CC(C)(C)CN1Cc2c(cc(Cl)c3[nH]ncc23)C[C@@H](CC(=O)Nc2ccc3c(c2)CCC2(C3)NC(=O)NC2=O)C1=O` (some centres unmarked), 0.1 to 10 nM; with `CC(C)(C)CN1Cc2c(cc(Cl)c3[nH]ncc23)C[C@@H](CC(=O)N2CCC(N3C(=O)CN(c4ccccc4)C3=O)CC2)C1=O`, 10 to 100 nM.

`O=C1Nc2ccccc2CC1N1CCN(C(=O)C[C@@H]2Cc3ccc4[nH]ncc4c3CN(Cc3ccccc3)C2=O)CC1` (some centres unmarked) registered an IC50 of 100 to 1000 nM. Regarding `O=C1Nc2ccccc2C2(CCN(C(=O)NC3Cc4ccc5[nH]ncc5c4CN(CCc4ccncc4)C3=O)CC2)N1` (centres unmarked), the 50% inhibitory concentration (IC50) lay in the range of 100 to 1000 nM. `CC(C)(C)CN1Cc2c(ccc3[nH]ncc23)C[C@@H](CC(=O)N2CCC(N3Cc4ccccc4NC3=O)CC2)C1=O`: the IC50 fell in the range of 10 to 100 nM.

For the molecule `O=C(C[C@@H]1Cc2cc(Cl)c3[nH]ncc3c2CN(Cc2cccnc2)C1=O)N1CCC(c2cc(-c3ccccc3)[nH]n2)CC1`, the IC50 is 10 to 100 nM.

One may read the IC50 as the concentration at which inhibition is half-maximal.
